Read-outs that look alike come from different tables or passages of the source.

Data set [1] is described as follows: Four plates test (anxiolytic action). Type of data set: in vivo, mouse. Particulars: 0.5 h, mouse, 30 min after administration, read-out: % of protection against anxiety. An excerpt:
This test, which is specific to the anxiolytics, was undertaken with the mouse, thirty minutes after the oral administration of the compound to be studied.
It consists in placing mice in a box with fairly high walls, of which the bottom comprises four square plates. These plates, which all have the same dimensions, are separated from each other by a central axis and are alternately electrified by the positive and negative poles of a source of electric current. There is a space of a few millimeters between adjacent plates.
The mouse placed in this apparatus explores it and thus passes over the different plates in succession. Note is taken of the number of times each animal passes over the plates during one minute. When the current is switched on, the mouse passing over the plates receives an electric shock (80 V), which provokes a gradual decrease in the exploratory movements, and finally brings the animals to a complete stop.
Anxiolytic agents enable the animals to become more or less indifferent to the electric shock.
The percentage of protection against anxiety given by compounds of the invention was calculated by comparing the number of times the control animals passed over the plates when electrified with the number of times the treated animals passed over the electrified plates.

Data set [2] can be described thus: Action on the pentylenetetrazole-induced seizure (anticonvulsant activity). Type of data set: in vivo, mouse. On the procedure: The purpose of this test which is carried out on mice is to determine whether the compounds of the invention, when given preventively by oral route, are capable at certain doses of protecting some of the animals against the epileptic seizure produced by a predetermined dose of pentylenetetrazole which would be 100% fatal in the absence of the compound.
The compound to be studied was administered fifteen minutes before an injection of 125 mg/kg of pentylenetetrazole and note was taken of the number of deaths occurring during the three hours following this injection. The results were expressed in percentage of protection of the animals against death at the dose studied.

Data set [3] can be described thus: Action with respect to tremorine (cholinolytic properties). Type of data set: in vivo, mouse. Particulars: mice, 30 min before 100 mg/kg i.p. tremorine. On the procedure: This test has been described by EVERETT (Nature, 1956, 177-238)
When injected into mice, tremorine produces peripheral cholinergic effects i.e. weeping, hypersalivation, sedation, diarrhea as well as central cholinergic effects i.e. tremors, akinesia.
Batches of 10 mice separated into individual cages, were given the compound to be studied, by oral route, 30 minutes before administration of an intraperitoneal dose of 100 mg/kg of tremorine.
Note was then taken in each batch of the percentage of animals presenting the various symptoms of tremorine-induced poisoning since at such a dose of tremorine 100% of the control animals are poisoned.
The results hereunder are expressed in percentage of mice protected against tremor at the dose of the compound of the invention which was administered: […]

A short description of data set [4]: "Electrically-provoked combat" test (anxiolytic action). Particulars: Mus musculus, 0.5 h, mice, 30 min before test, read-out: % of decrease in number of combats. Type of data set: in vivo, mouse. An excerpt: Under certain conditions, a pair of mice reacts to an electric stimulus by a series of combats which are provoked by the anxiety felt by the animals as a result of the electric shock. This anxiety is expressed by a combat with the other animal which is rendered responsible. For this reason, the test described hereunder can be considered as a means of evaluating the anxiolytic action of a compound. Two mice which have been previously on a diet consisting only of water are placed together in a cage. They are then submitted to a series of electric impulses of an intensity varying between 40 and 80 volts according to the sensitivity of the animals. The test is first carried out with untreated animals as controls and then with the same animals treated 30 minutes before the test with a dose of the compound to be studied.
Note is taken on the number of combats engaged. The results are expressed in percentage of decrease in the number of combats engaged by the treated animals in comparison with the number of combats registered before treatment.

Data set [5] in a line: Anxiolytic and antiaggressive properties and separation from sedation (general statements). Particulars: in vivo.
The conditions of data set [6]: cited from earlier work.
Data set [7] is described as follows: rota rod test (neurotoxicity). Format: in vivo, mouse. Particulars: 370 mg/kg oral, mice, 30 min after administration. Here is the method:
The test used was that known as the rota rod test described by BOISSIER (Therapie 1958 XIII pp. 1074-1118).
This test aims at determining the ability of mice to coordinate their movements by seeing to what extent they can remain on a roller turning at a rate of 4 revolutions per minute for two minutes. The trial was carried out thirty minutes after administration by oral route of the compound to be studied and the percentage of failures was noted.
The value of this test is twofold. Failure on the part of the animals gives a very early indication of the slightest damage to the meuromuscular functions which cannot be discerned by any other means. Secondly, this test serves as an element of comparison for drawing up index figures involving the results obtained with other tests.
Background: Falling from the rotarod earlier than controls is read as motor impairment.

[8] abbreviates: Mus musculus, po, 3 h, read-out: % of protection against death.
Setting [9] is: Arch. Int. Pharmacodyn 219, 104-115 (1976).

Turning to `C=CCC(CCC)(CCC)NC(N)=O` [Compound E, 1-(1,1-Di-n-propyl-3-butenyl)-urea], the inhibition in vivo at 100 mg/kg in data set [1] (100 mg/kg oral) was 27%. Besides, the responders at 300 mg/kg in data set [2] (setting [8]) came out at 90%. The “% of protection against tremor” value in data set [3] (100 mg/kg oral) is recorded as 0%. In addition, the inhibition in vivo at 50 mg/kg in data set [4] (50 mg/kg) came out at 70%.

Take `CCCC(CCC)(CCC)NC(=O)NC(=O)c1ccccc1` [1-(1,1-di-n-propyl-n-butyl)-3-benzoyl-urea]: the “anxiolytic and antiaggressive activity (in words)” value in data set [5] is “inactive or practically devoid of any anxiolytic or antiaggressive activity”.

Consider `CCCC(CCC)(CCC)NC(=O)NC(C)=O` [1-(1,1-di-n-propyl-n-butyl)-3-acetyl-urea], for which the “anxiolytic and antiaggressive activity (in words)” value in data set [5] is “inactive or practically devoid of any anxiolytic or antiaggressive activity”.

For `CC(C)(C)NC(N)=O` [tert-butyl-urea], in data set [6] (setting [9]), the “pharmacological properties (in words)” value is “anticonvulsant, hypnotic and sedative properties”; the “potentiation of hypnotic effects of the barbiturates” value is “potentiator of the hypnotic effects of the barbiturates”.

Regarding `C#CC(CC)(CC)NC(N)=O` [Compound C, 1-(1,1-Diethyl-2-propynyl)-urea], in data set [1] (105 mg/kg oral), the inhibition in vivo at 105 mg/kg was found to be 50%. Further, in data set [2] (setting [8]), the responders at 70 mg/kg was 50%. In addition, the “anticonvulsant activity (in words)” value in data set [2] (pentylenetetrazole-induced seizure, mice, oral) is recorded as “considerable”. Moreover, the “% of failures in rota rod test” value in data set [7] was 50%. In addition, the “% of protection against tremor” value in data set [3] (170 mg/kg oral) is on record as 0%. In data set [4] (71 mg/kg), the inhibition in vivo at 71 mg/kg turned out to be 50%.

Regarding `CCCCNC(N)=O` [n-butyl-urea], the “pharmacological properties (in words)” value in data set [6] (Arch. Int. Pharmacodyn 208, 204-212 (1974)) was “properties similar to those cited hereabove with respect to tert-butyl-urea”.

The record behind these values is US4223041A, “Urea derivatives to treat anxiety and aggressivity” (Labaz, priority 1976, dated 1980).
